Article PMC7580834, “Inhibition mechanism of naphthylphenylamine derivatives acting on the CDC25B dual phosphatase and analysis of the molecular processes involved in the high cytotoxicity exerted by one selected derivative in melanoma cells” (Journal of Enzyme Inhibition and Medicinal Chemistry, 2020)

Tests used:
CDC25B = target: T1, CDC25B (Homo sapiens, UniProt P30305); test: Intrinsic fluorescence quenching of recombinant CDC25B catalytic domain (Stern-Volmer); type: binding
T1 sequence (P30305 377-551 isoform P30305-2 limits assumed): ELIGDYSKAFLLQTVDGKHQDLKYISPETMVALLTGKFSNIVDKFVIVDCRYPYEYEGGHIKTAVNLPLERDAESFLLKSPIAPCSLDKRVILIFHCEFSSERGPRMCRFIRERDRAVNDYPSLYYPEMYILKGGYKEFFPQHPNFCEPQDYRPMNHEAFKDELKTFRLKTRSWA
Experimental: Fluorescence spectra were recorded at 20 °C using a computer-assisted Cary Eclipse spectrofluorimeter (Varian, Palo Alto, CA, USA) equipped with an electronic temperature controller. The excitation wavelength was set at 280 nm and the excitation and emission slits were set at 10 and 20 nm, respectively. A 500 µL final volume of a 0.2 µM solution of CDC25B or CDC25B-C473S dissolved in 20 mM Tris•HCl, pH 7.8, 0.5 mM TCEP was directly prepared in the fluorimetric cuvette in the absence or in the presence of OMFP and/or some NPA derivatives. Serial pre-dilutions of the NPA derivatives or OMFP at increasing concentration were prepared in DMSO or methanol, respectively. Alongside, a convenient amount of the enzyme pre-dilution was prepared just before its usage for the experiment and stored on ice. When the combined effect of NPA derivative and OMFP was investigated, two enzyme pre-dilutions were prepared in the absence or in the presence of 5 µM OMFP. In order to evaluate the specific effect produced by any addition of solvent/ligand on the intrinsic fluorescence of the enzyme, 495 µL of the enzyme pre-dilution were placed in the fluorimetric cuvette and the relative spectrum was recorded; after the addition of 5 µL of each pre-dilution of solvent/ligand and fast mixing, the spectrum was recorded again. This procedure, repeated for each experimental point, allowed a normalisation of the specific effects produced by solvent/ligands. Furthermore, a correction was also applied for the little inner-filter effect due to the absorbance at 280 nm of the NPA derivative used at different concentrations; on the other hand, no correction was necessary for OMFP. All spectra, recorded at a scan speed of 120 nm/min, were normalised and corrected.

caspase-9 in A2058 cells = test: Caspase-9 fluorimetric activity assay in cell lysates; type: cell-based, human; details: 10 µM, 24 h
Experimental: (§1) The caspase-3 and caspase-9 enzymatic activity was measured by using caspase-3 and -9 fluorimetric assay kits, respectively, according to the manufacturer’s protocol. Briefly, cells were seeded into 75 cm^2 plates (2 × 10^6 cells/plate) and after 24 h treated with 4a or 0.5% (v/v) DMSO for 24 h. At the end of incubation, cells were collected, washed with phosphate-buffered saline constituted by 10 mM Na2HPO4, 2 mM KH2PO4, pH 7.4, supplemented with 137 mM NaCl and 2.7 mM KCl (PBS), and finally lysed at 4 °C in the cell lysis buffer. Cell lysates were incubated with 50 µM DEVD-AFC or LEHD-AFC substrates at 37 °C for 2 h, to detect caspase-3 or caspase-9 activity, respectively, using a Cary Eclipse spectrofluorimeter. Excitation and emission wavelengths were set at 400 nm and 505 nm, respectively; both excitation and emission slits were set at 10 nm.

caspase-9 in A375 cells = test: as above; type: cell-based, human; details: 10 µM, 24 h
Experimental: as §1

A2058 cells = test: Western blotting of total cell extracts (CDC25A, -B, -C, p53, pAkt); type: cell-based, human; details: 10 µM
Experimental: To obtain the total protein extract, cells were seeded into 6-well-plates (3 × 10^5 cells/plate) for 24 h at 37 °C and then treated with 4a or 0.5% (v/v) DMSO. After treatment, cells were harvested, washed with PBS, and then lysed in ice-cold modified radio immunoprecipitation assay (RIPA) buffer (50 mM Tris•HCl, pH 7.4, 150 mM NaCl, 1% Nonidet P-40, 0.25% sodium deoxycholate, 1 mM Na3VO4 and 1 mM NaF), supplemented with protease inhibitors and incubated for 30 min on ice. The supernatant, obtained after centrifugation at 13200 g for 30 min at 4 °C, constituted the total protein extract. Protein concentration was determined by the Bradford method, using bovine serum albumin (BSA) as standard. To obtain the cytosolic and mitochondrial fractions, cells were plated at a density of 2 × 10^6 cells/plate for 24 h at 37 °C. After the treatment with 4a or 0.5% (v/v) DMSO, cells were harvested, washed in PBS, and then resuspended in buffer A (5 mM Hepes, pH 7.4, 250 mM mannitol, 0.5 mM EGTA, 0.1% BSA), supplemented with protease inhibitors, and homogenised. The homogenate was centrifuged at 600 g for 5 min at 4 °C and the supernatant was then centrifuged at 10300 g for 10 min at 4 °C. The resulting supernatant represented the cytosolic fraction, whereas the pellet, constituting the mitochondrial fraction was resuspended in RIPA buffer. Protein concentration was determined as previously indicated. Equal amounts of total, cytosolic or mitocondrial protein extracts were used for Western blotting analysis. Briefly, protein samples were dissolved in SDS-reducing loading buffer, run on sodium dodecylsulfate polyacrylamide gel electrophoresis (SDS/PAGE), and then transferred to Immobilon P membrane (Millipore, Saint Louis, MO, USA). The filter was incubated with the specific primary antibody at 4 °C overnight and then with the secondary antibody at room temperature for 1 h. Membranes were then analysed by an enhanced chemiluminescence reaction using WesternBright ECL (Advansta, San Jose, CA, USA) according to manufacturer’s instructions; signals were visualised by autoradiography. The analysis of pAkt protein levels was performed as previously described. Briefly, filters were first incubated with the anti-pAkt primary antibody and then with the secondary antibody and membranes were analysed by an enhanced chemiluminescence reaction as previously indicated. The same filters were then stripped, using AbCam (Cambridge, UK) stripping solution, pH 2 (200 mM glycine, 3.5 mM SDS, 1% Tween-20) at 45 °C for 30 min, washed 3 times with PBS-Tween 0.1%, incubated with anti-Akt primary antibody and then with the relative secondary antibody. Signals were detected as previously specified.

KSV (Stern-Volmer constant) (CDC25B; 0.2 µM wild-type CDC25B, emission 357 nm, 20 °C, no OMFP): 0.010 µM⁻¹ | Kd (CDC25B; reciprocal of KSV, inhibitor concentration leading to 50% quenching of CDC25B emission, read-out: K′D of the complex, Free CDC25B•inhibitor): > 50 µM
Structure (SMILES): CCOC(=O)c1cccc(Nc2cc(OC)cc3ccccc23)c1 [4a]
enzymatic activity of caspase-9 (caspase-9 in A2058 cells): statistically significant increase | enzymatic activity of caspase-9 (caspase-9 in A375 cells): statistically significant increase | p53 protein levels (A2058 cells; 16- and 24-h): clear and significant increase | pAkt protein levels (A2058 cells; 30-min): significant and early decrease | CDC25A, -B and -C protein levels (A2058 cells; essentially after 24- and 48-h): reduction of protein levels of all three forms
